# Measured values published in PubChem BioAssay AID1259407 (Chemical Carcinogenesis Research Information System (CCRIS), 2018).
# Activity calls are given as the source filed them. No rule for the calls is given here.
# Tested on: CCRIS mutagenicity, Ames/micronucleus/aberration tests
# Test: CCRIS mutagenicity studies
# [1] = Test System: AMES SALMONELLA TYPHIMURIUM, Strain/Indicator: TA98, Metabolic Activation: HAMSTER, LIVER, S-9, AROCLOR 1254, Method: STANDARD PLATE
# [2] = Test System: AMES SALMONELLA TYPHIMURIUM, Strain/Indicator: TA98, Metabolic Activation: NONE, Method: STANDARD PLATE
# [3] = Test System: AMES SALMONELLA TYPHIMURIUM, Strain/Indicator: TA98, Metabolic Activation: RAT, LIVER, S-9, AROCLOR 1254, Method: STANDARD PLATE
# [4] = Test System: AMES SALMONELLA TYPHIMURIUM, Strain/Indicator: TA100, Metabolic Activation: HAMSTER, LIVER, S-9, AROCLOR 1254, Method: STANDARD PLATE
# [5] = Test System: AMES SALMONELLA TYPHIMURIUM, Strain/Indicator: TA100, Metabolic Activation: NONE, Method: STANDARD PLATE
# [6] = Test System: AMES SALMONELLA TYPHIMURIUM, Strain/Indicator: TA100, Metabolic Activation: RAT, LIVER, S-9, AROCLOR 1254, Method: STANDARD PLATE
# [7] = Test System: MOUSE LYMPHOMA, Strain/Indicator: L5178Y (TK+/TK-), Metabolic Activation: NONE, Method: SUSPENSION/PLATE
# [8] = Test System: MOUSE LYMPHOMA, Strain/Indicator: L5178Y (TK+/TK-), Metabolic Activation: RAT, LIVER, S-9, AROCLOR 1254, Method: SUSPENSION/PLATE
smiles,measurement,setting,value
CCCC(O)C(CC)CO (stereo not given),mutagenic call,[1],inactive; negative
same,mutagenic call,[2],inactive; negative
same,mutagenic call,[3],inactive; negative
same,mutagenic call,[4],inactive; negative
same,mutagenic call,[5],inactive; negative
same,mutagenic call,[6],inactive; negative
same,mutagenic call,"Test System: AMES SALMONELLA TYPHIMURIUM, Strain/Indicator: TA1535, Metabolic Activation: HAMSTER, LIVER, S-9, AROCLOR 1254, Method: STANDARD PLATE",inactive; negative
same,mutagenic call,"Test System: AMES SALMONELLA TYPHIMURIUM, Strain/Indicator: TA1535, Metabolic Activation: NONE, Method: STANDARD PLATE",inactive; negative
same,mutagenic call,"Test System: AMES SALMONELLA TYPHIMURIUM, Strain/Indicator: TA1535, Metabolic Activation: RAT, LIVER, S-9, AROCLOR 1254, Method: STANDARD PLATE",inactive; negative
same,mutagenic call,"Test System: AMES SALMONELLA TYPHIMURIUM, Strain/Indicator: TA1537, Metabolic Activation: HAMSTER, LIVER, S-9, AROCLOR 1254, Method: STANDARD PLATE",inactive; negative
same,mutagenic call,"Test System: AMES SALMONELLA TYPHIMURIUM, Strain/Indicator: TA1537, Metabolic Activation: NONE, Method: STANDARD PLATE",inactive; negative
same,mutagenic call,"Test System: AMES SALMONELLA TYPHIMURIUM, Strain/Indicator: TA1538, Metabolic Activation: HAMSTER, LIVER, S-9, AROCLOR 1254, Method: STANDARD PLATE",inactive; negative
same,mutagenic call,"Test System: AMES SALMONELLA TYPHIMURIUM, Strain/Indicator: TA1538, Metabolic Activation: NONE, Method: STANDARD PLATE",inactive; negative
same,mutagenic call,"Test System: AMES SALMONELLA TYPHIMURIUM, Strain/Indicator: TA1538, Metabolic Activation: RAT, LIVER, S-9, AROCLOR 1254, Method: STANDARD PLATE",inactive; negative
same,mutagenic call,[7],inactive; positive. reevaluation of results: negative
same,mutagenic call,[8],inactive; negative. reevaluation of results: negative
O=C([O-])/C=C/C(=O)[O-].[Fe+2],mutagenic call,[1],active; positive
same,mutagenic call,[2],inactive; negative
same,mutagenic call,[3],active; positive
same,mutagenic call,[4],inactive; negative
same,mutagenic call,[5],inactive; negative
same,mutagenic call,[6],inactive; negative
same,mutagenic call,"Test System: AMES SALMONELLA TYPHIMURIUM, Strain/Indicator: TA102, Metabolic Activation: HAMSTER, LIVER, S-9, AROCLOR 1254, Method: STANDARD PLATE",inactive; negative
same,mutagenic call,"Test System: AMES SALMONELLA TYPHIMURIUM, Strain/Indicator: TA102, Metabolic Activation: NONE, Method: PREINCUBATION",inactive; negative
same,mutagenic call,"Test System: AMES SALMONELLA TYPHIMURIUM, Strain/Indicator: TA102, Metabolic Activation: NONE, Method: STANDARD PLATE",inactive; negative
same,mutagenic call,"Test System: AMES SALMONELLA TYPHIMURIUM, Strain/Indicator: TA102, Metabolic Activation: RAT, LIVER, S-9, AROCLOR 1254, Method: STANDARD PLATE",inactive; negative
same,mutagenic call,[7],active; positive. reevaluation of results: positive
same,mutagenic call,[8],inactive; negative. reevaluation of results: negative
CC(C)(C)OOC(C)(C)CCC(C)(C)OOC(C)(C)C,mutagenic call,"Test System: AMES SALMONELLA TYPHIMURIUM, Strain/Indicator: TA97, Metabolic Activation: HAMSTER, LIVER, S-9, AROCLOR 1254 (10 OR 30%), Method: PREINCUBATION",inactive; negative
same,mutagenic call,"Test System: AMES SALMONELLA TYPHIMURIUM, Strain/Indicator: TA97, Metabolic Activation: NONE, Method: PREINCUBATION",inactive; negative
same,mutagenic call,"Test System: AMES SALMONELLA TYPHIMURIUM, Strain/Indicator: TA97, Metabolic Activation: RAT, LIVER, S-9, AROCLOR 1254 (10 OR 30%), Method: PREINCUBATION",inactive; negative
same,mutagenic call,"Test System: AMES SALMONELLA TYPHIMURIUM, Strain/Indicator: TA98, Metabolic Activation: HAMSTER, LIVER, S-9, AROCLOR 1254 (10 OR 30%), Method: PREINCUBATION",inactive; negative
same,mutagenic call,"Test System: AMES SALMONELLA TYPHIMURIUM, Strain/Indicator: TA98, Metabolic Activation: NONE, Method: PREINCUBATION",inactive; negative
same,mutagenic call,"Test System: AMES SALMONELLA TYPHIMURIUM, Strain/Indicator: TA98, Metabolic Activation: RAT, LIVER, S-9, AROCLOR 1254 (10 OR 30%), Method: PREINCUBATION",inactive; negative
same,mutagenic call,"Test System: AMES SALMONELLA TYPHIMURIUM, Strain/Indicator: TA100, Metabolic Activation: HAMSTER, LIVER, S-9, AROCLOR 1254 (10 OR 30%), Method: PREINCUBATION",inactive; negative
same,mutagenic call,"Test System: AMES SALMONELLA TYPHIMURIUM, Strain/Indicator: TA100, Metabolic Activation: NONE, Method: PREINCUBATION",inactive; negative
same,mutagenic call,"Test System: AMES SALMONELLA TYPHIMURIUM, Strain/Indicator: TA100, Metabolic Activation: RAT, LIVER, S-9, AROCLOR 1254 (10 OR 30%), Method: PREINCUBATION",inactive; negative
same,mutagenic call,"Test System: AMES SALMONELLA TYPHIMURIUM, Strain/Indicator: TA1535, Metabolic Activation: HAMSTER, LIVER, S-9, AROCLOR 1254 (10 OR 30%), Method: PREINCUBATION",inactive; negative
same,mutagenic call,"Test System: AMES SALMONELLA TYPHIMURIUM, Strain/Indicator: TA1535, Metabolic Activation: NONE, Method: PREINCUBATION",inactive; negative
same,mutagenic call,"Test System: AMES SALMONELLA TYPHIMURIUM, Strain/Indicator: TA1535, Metabolic Activation: RAT, LIVER, S-9, AROCLOR 1254 (10 OR 30%), Method: PREINCUBATION",inactive; negative
